Reference: ChEMBL document CHEMBL3351804, “Development of 2-aryl substituted quinazolin-4(3H)-one, pyrido[4,3-d]pyrimidin-4(3H)-one and pyrido[2,3-d]pyrimidin-4(3H)-one derivatives as microsomal prostaglandin E(2) synthase-1 inhibitors” (Bioorg Med Chem Lett, 2014)

Tests used:
[1] = molecular target: T1, Prostaglandin E synthase (Homo sapiens, UniProt O14684); experiment: Inhibition of mPGES-1 in human A549 cells assessed as inhibition of IL-1beta-induced PGE2 production incubated for 30 mins prior to IL-1beta challenge measured after 18 hrs by plate reader analysis; type: cell-based
T1 sequence (O14684 whole entry): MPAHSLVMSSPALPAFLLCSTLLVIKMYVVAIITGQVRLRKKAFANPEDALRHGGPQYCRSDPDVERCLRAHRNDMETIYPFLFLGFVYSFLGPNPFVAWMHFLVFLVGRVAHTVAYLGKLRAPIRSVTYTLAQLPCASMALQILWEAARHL

[2] = molecular target: T1, Prostaglandin E synthase; experiment: Inhibition of mPGES-1 in human whole blood assessed as inhibition of LPS-induced PGE2 production incubated for 30 mins prior to LPS challenge measured after 20 to 24 hrs by LC/MS/MS analysis
[3] = molecular target: T2, Prostaglandin E synthase (Homo sapiens) (UniProt O14684); experiment: Inhibition of human recombinant mPGES-1 expressed in CHO cells using PGH2 as substrate at 1 uM incubated for 10 mins prior to substrate addition measured after 1 min
T2 sequence (whole entry): T1 sequence (O14684 whole entry)

[4] = molecular target: T2, Prostaglandin E synthase (Homo sapiens); experiment: Inhibition of human recombinant mPGES-1 expressed in CHO cells using PGH2 as substrate at 10 uM incubated for 10 mins prior to substrate addition measured after 1 min; type: cell-based
[5] = molecular target: T1, Prostaglandin E synthase; experiment: Inhibition of human recombinant mPGES-1 expressed in CHO cells using PGH2 as substrate incubated for 10 mins prior to substrate addition measured after 1 min
[6] = molecular target: T1, Prostaglandin E synthase; experiment: Inhibition of human mPGES-1
[7] = molecular target: T1, Prostaglandin E synthase; experiment: Inhibition of mPGES-1 in human A549 cells; type: cell-based
[8] = molecular target: T1, Prostaglandin E synthase; experiment: Inhibition of mPGES-1 in human A549 cells assessed as inhibition of IL-1beta-induced PGE2 production incubated for 30 mins prior to IL-1beta challenge measured after 18 to 24 hrs; type: cell-based
[9] = Inhibition of guinea pig recombinant mPGES-1; parameters: species or system Cavia porcellus
[10] = molecular target: T1, Prostaglandin E synthase; experiment: Inhibition of mPGES-1 in human A549 cells using arachidonic acid as substrate assessed as inhibition of IL-1beta/TNF-alpha-induced PGE2 production incubated for 30 mins prior to substrate addition measured after 30 mins by EIA; type: cell-based
[11] = molecular target: T1, Prostaglandin E synthase; experiment: Inhibition of mPGES-1 in human whole blood assessed as inhibition of LPS-induced PGE2 production after overnight incubation

`Cc1nc(NC(=O)c2cc(CNC(=O)C(C)C)cnc2C(F)F)[nH]c1-c1ccc(C(F)(F)F)cc1` showed an IC50 [1] of 12 nM and an IC50 [2] of 12 nM.
In the case of `CC(C)C(=O)NCc1ccc(Cl)c(-c2nc3ccccc3c(=O)[nH]2)c1`, the inhibition [3] is reported as 17% and the inhibition [4] is reported as 67%.
Work on `CC(C)C(=O)NCc1ccc(Cl)c(-c2nc3cc(C(N)=O)ccc3c(=O)[nH]2)c1` yielded an inhibition [3] of 14% and an inhibition [4] of 16%.
With `CC(C)C(=O)NCc1ccc(Cl)c(-c2nc3cc(Cl)c(N4CCC(O)CC4)cc3c(=O)[nH]2)c1` the IC50 [5] was 713 nM.
Work on `CC(C)C(=O)NCc1ccc(Cl)c(-c2nc3cc(Cl)c(N4CCN(C)CC4)cc3c(=O)[nH]2)c1` yielded an inhibition [3] of 41% and an inhibition [4] of 75%.
`CC(C)C(=O)NCc1ccc(Cl)c(-c2nc3cc(Cl)c(C4CC4)cc3c(=O)[nH]2)c1` gave an IC50 [5] of 32 nM.
For `CC(C)C(=O)NCc1ccc(Cl)c(-c2nc3cc([N+](=O)[O-])ccc3c(=O)[nH]2)c1`, the IC50 [5] was 63 nM.
`CC(C)C(=O)NCc1ccc(Cl)c(-c2nc3cc(Cl)c(N4CC[C@@H](O)C4)cc3c(=O)[nH]2)c1` showed an inhibition [3] of 67% and an inhibition [4] of 95%.
For `COc1cc2c(=O)[nH]c(-c3cc(CNC(=O)C(C)C)ccc3Cl)nc2cc1Cl`, the IC50 [5] was 111 nM.
`CC(C)C(=O)NCc1ccc(Cl)c(-c2nc3cc(Cl)c(N4CCC(C(F)F)CC4)cc3c(=O)[nH]2)c1` showed an IC50 [5] of 24 nM.
For `CC(C)C(=O)NCc1ccc(Cl)c(-c2nc3cc(NC(=O)C4CC4)ccc3c(=O)[nH]2)c1`, the inhibition [3] was 21% and the inhibition [4] was 74%.
With `CC(C)C(=O)NCc1ccc(Cl)c(-c2nc3cc(Cl)c(N4CC[C@H](O)C4)cc3c(=O)[nH]2)c1` the inhibition [3] was 42% and the inhibition [4] was 91%.
Work on `COCc1nc2c(C(=O)Nc3cccc(Cl)c3C)cc(NC(=O)c3c(Cl)cccc3C(F)(F)F)cc2[nH]1` yielded an IC50 [6] of 0.1 nM and an IC50 [7] of 1.2 nM.
Compound `CC(C)C(=O)NCc1ccc(Cl)c(-c2nc3cc(N4CCC(C(F)(F)F)CC4)ccc3c(=O)[nH]2)c1` has an IC50 [5] of 74 nM.
`CC(C)C(=O)NCc1cnc(C(F)F)c(-c2nc3cc(-c4ccc(C(F)(F)F)cc4)ncc3c(=O)[nH]2)c1` showed an IC50 [5] of 4 nM and an IC50 [8] of 111 nM.
`N#Cc1cccc(C#N)c1-c1nc2c3ccc(Cl)cc3c3ccccc3c2[nH]1` showed an IC50 [9] of 0.9 nM.
Work on `CC(C)C(=O)NCc1ccc(Cl)c(-c2nc3cc(Cl)ccc3c(=O)[nH]2)c1` yielded an IC50 [5] of 42 nM.
Work on `CC(C)C(=O)NCc1ccc(Cl)c(-c2nc3cc(Cl)c(N4CCOCC4)cc3c(=O)[nH]2)c1` yielded an IC50 [5] of 261 nM.
In the case of `CC(C)(C)C(=O)NCc1ccc(Cl)c(C(=O)Nc2ccc3cnn(-c4ccc(C(F)(F)F)cc4)c(=O)c3c2)c1`, the IC50 [5] is reported as 5 nM.
For `CC(C)C(=O)NCc1ccc(Cl)c(-c2nc3cc(Cl)c(-c4ccncc4)cc3c(=O)[nH]2)c1`, the IC50 [5] was 481 nM.
`CC(C)C(=O)NCc1ccc(Cl)c(-c2nc3cc(N)ccc3c(=O)[nH]2)c1` gave an inhibition [3] of 16% and an inhibition [4] of 70%.
`CC(C)C(=O)NCc1ccc(Cl)c(-c2nc3cc(Cl)c(-c4ccc(C(F)(F)F)cc4)cc3c(=O)[nH]2)c1` gave an IC50 [5] of 36 nM.
Work on `CC(C)C(=O)NCc1ccc(Cl)c(-c2nc3cc(C4CC4)ccc3c(=O)[nH]2)c1` yielded an IC50 [5] of 58 nM.
Work on `O=C(Nc1ccc(C(F)(F)F)cn1)c1cccc(NC(=O)c2ccccc2C(F)(F)F)c1` yielded an IC50 [10] of 500 nM.
Compound `O=C(Nc1ccc2cnn(-c3ccc(Br)cc3)c(=O)c2c1)c1c(F)cccc1Cl` has an IC50 [5] of 179 nM.
For `CC(C)C(=O)NCc1ccc(Cl)c(-c2nc3cc(F)ccc3c(=O)[nH]2)c1`, the inhibition [3] was 52% and the inhibition [4] was 98%.
For `COc1ccc2c(=O)[nH]c(-c3cc(CNC(=O)C(C)C)ccc3Cl)nc2c1`, the IC50 [5] was 304 nM.
In the case of `CC(C)C(=O)NCc1ccc(Cl)c(-c2nc3cc(-c4ccc(C(F)(F)F)nc4)ccc3c(=O)[nH]2)c1`, the IC50 [5] is reported as 16 nM and the IC50 [8] is reported as 23 nM.
In the case of `CNC(=O)C1CCN(c2cc3c(=O)[nH]c(-c4cc(CNC(=O)C(C)C)ccc4Cl)nc3cc2Cl)CC1`, the inhibition [3] is reported as 28% and the inhibition [4] is reported as 76%.
In the case of `CC(C)C(=O)NCc1ccc(Cl)c(-c2nc3ccc(-c4ccc(C(F)(F)F)cc4)cc3c(=O)[nH]2)c1`, the IC50 [5] is reported as 55 nM.
Work on `O=C(Nc1ccnc2c(Nc3ccc(C(F)(F)F)cc3)nsc12)c1c(F)cccc1Cl` yielded an IC50 [5] of 157 nM.
For `CC(C)C(=O)NCc1ccc(Cl)c(-c2nc3cc(-c4ccc(C(F)(F)F)cc4)ccc3c(=O)[nH]2)c1`, the IC50 [5] was 7 nM, the IC50 [8] was 10 nM and the IC50 [11] was 234 nM.
Compound `CC(C)(C)C(=O)NCc1ccc(Cl)c(C(=O)Nc2ccnc3c(Nc4ccc(C(F)(F)F)cc4)nsc23)c1` has an IC50 [5] of 3 nM.
`CC(=O)O[C@H]1CCN(c2cc3c(=O)[nH]c(-c4cc(CNC(=O)C(C)C)ccc4Cl)nc3cc2Cl)C1` showed an IC50 [5] of 243 nM.
For `CC(C)C(=O)NCc1ccc(Cl)c(-c2nc3cc(C(F)(F)F)ccc3c(=O)[nH]2)c1`, the IC50 [5] was 26 nM.
Compound `CC(C)C(=O)NCc1ccc(Cl)c(-c2nc3cc(Br)ccc3c(=O)[nH]2)c1` has an IC50 [5] of 36 nM.
Compound `CC(C)C(=O)NCc1ccc(Cl)c(-c2nc3cc(Cl)c(N4CC(C(=O)NC(C)(C)C)C4)cc3c(=O)[nH]2)c1` has an IC50 [5] of 59 nM.
With `CC(C)C(=O)NCc1ccc(Cl)c(-c2nc3cc(Cl)c(N4CCNC(=O)C4)cc3c(=O)[nH]2)c1` the inhibition [3] was 30% and the inhibition [4] was 79%.
With `CC(C)C(=O)NCc1ccc(Cl)c(-c2nc3nc(-c4ccc(C(F)(F)F)cc4)ccc3c(=O)[nH]2)c1` the IC50 [5] was 10 nM, the IC50 [8] was 11 nM and the IC50 [11] was 328 nM.
For `CC(=O)O[C@@H]1CCN(c2cc3c(=O)[nH]c(-c4cc(CNC(=O)C(C)C)ccc4Cl)nc3cc2Cl)C1`, the IC50 [5] was 248 nM.
For `CC(C)C(=O)NCc1cnc(C(F)F)c(-c2nc3cc(-c4ccc(C(F)(F)F)cc4)ccc3c(=O)[nH]2)c1`, the IC50 [5] was 6 nM and the IC50 [8] was 33 nM.
